Measured values taken from US20070111967A1, “Organosilicon compounds and their use” (priority 2003, published 2007).

COc1cc(OC)c(NC(=O)c2ccc(Cc3cc4c(cc3C)[Si](C)(C)C[Si]4(C)C)o2)c(OC)c1
melting point: 105 °C
